According to the supplement of paper PMC10307832:

Key:
Experiment in all cases: relative viability (nuclei count vs DMSO), 5 days (fraction); higher = more cells survive
Idelalisib + AZD7762 = compound: CC[C@H](Nc1ncnc2[nH]cnc12)c1nc2cccc(F)c2c(=O)n1-c1ccccc1 [Idelalisib] + NC(=O)Nc1cc(-c2cccc(F)c2)sc1C(=O)N[C@H]1CCCNC1 [AZD7762] (partner 0.2 µM)
Outline: (§1)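 Nuclei were stained with Hoechst during a one-step fixation (final 0.05% Triton X-100, 1% formaldehyde, 1 ug/ml Hoechst) carried out 5 days after dosing, then counted on 4× images. The cells, lung cancer lines in 1536-well plates, had been dosed by pin tool the day after seeding with one drug alone or a fixed anchor-drug dose plus five library-drug doses (not always all listed) in √10 steps. Relative viability is the nuclei count in treated wells divided by that in vehicle wells, and each value is the median of duplicate plates.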

Pemetrexed + Trametinib = compound: Nc1nc2[nH]cc(CCc3ccc(C(=O)N[C@@H](CCC(=O)O)C(=O)O)cc3)c2c(=O)[nH]1 [Pemetrexed] + CC(=O)Nc1cccc(-n2c(=O)n(C3CC3)c(=O)c3c(Nc4ccc(I)cc4F)n(C)c(=O)c(C)c32)c1 [Trametinib] (partner 0.02 µM)
Outline: as §1

Pemetrexed + Palbociclib = compound: Nc1nc2[nH]cc(CCc3ccc(C(=O)N[C@@H](CCC(=O)O)C(=O)O)cc3)c2c(=O)[nH]1 [Pemetrexed] + CC(=O)c1c(C)c2cnc(Nc3ccc(N4CCNCC4)cn3)nc2n(C2CCCC2)c1=O [Palbociclib] (partner 0.5 µM)
Outline: as §1

Pemetrexed + Lapatinib = compound: Nc1nc2[nH]cc(CCc3ccc(C(=O)N[C@@H](CCC(=O)O)C(=O)O)cc3)c2c(=O)[nH]1 [Pemetrexed] + CS(=O)(=O)CCNCc1ccc(-c2ccc3ncnc(Nc4ccc(OCc5cccc(F)c5)c(Cl)c4)c3c2)o1 [Lapatinib] (partner 2 µM)
Outline: as §1

| Cell Line | relative viability (Idelalisib + AZD7762; first compound 0.04 µM) | relative viability (Idelalisib + AZD7762; first compound 0.1265 µM) | relative viability (Idelalisib + AZD7762; first compound 0.4 µM) | relative viability (Idelalisib + AZD7762; first compound 1.265 µM) | relative viability (Idelalisib + AZD7762; first compound 4 µM) | relative viability (Pemetrexed + Trametinib; first compound 0.002 µM) | relative viability (Pemetrexed + Trametinib; first compound 0.006325 µM) | relative viability (Pemetrexed + Trametinib; first compound 0.02 µM) | relative viability (Pemetrexed + Trametinib; first compound 0.06325 µM) | relative viability (Pemetrexed + Trametinib; first compound 0.2 µM) | relative viability (Pemetrexed + Palbociclib; first compound 0.002 µM) | relative viability (Pemetrexed + Palbociclib; first compound 0.006325 µM) | relative viability (Pemetrexed + Palbociclib; first compound 0.02 µM) | relative viability (Pemetrexed + Palbociclib; first compound 0.06325 µM) | relative viability (Pemetrexed + Palbociclib; first compound 0.2 µM) | relative viability (Pemetrexed + Lapatinib; first compound 0.002 µM) | relative viability (Pemetrexed + Lapatinib; first compound 0.006325 µM) | relative viability (Pemetrexed + Lapatinib; first compound 0.02 µM) | relative viability (Pemetrexed + Lapatinib; first compound 0.06325 µM) | relative viability (Pemetrexed + Lapatinib; first compound 0.2 µM) |
| --- | --- | --- | --- | --- | --- | --- | --- | --- | --- | --- | --- | --- | --- | --- | --- | --- | --- | --- | --- | --- |
| LC-2-ad | 0.826 | 0.86 | 0.734 | 0.782 | 0.632 | 0.915 | 0.856 | 0.87 | 0.82 | 0.306 | 0.452 | 0.501 | 0.524 | 0.431 | 0.404 | 0.747 | 1.01 | 1.01 | 0.27 | 0.179 |
| LCLC-97TM1 | 0.199 | 0.382 | 0.274 | 0.107 | 0.339 | 0.21 | 0.189 | 0.179 | 0.211 | 0.184 | 0.225 | 0.228 | 0.206 | 0.21 | 0.259 | 1.32 | 0.653 | 1.05 | 1.21 | 0.353 |
| LK-2 | 0.637 | 0.395 |  | 0.27 | 0.371 | 0.649 | 0.568 | 0.697 | 0.737 | 0.659 | 0.751 | 0.758 | 0.721 | 0.464 | 0.366 | 0.863 | 0.877 | 1.13 | 0.775 | 0.521 |
| LOU-NH91 | 0.833 | 0.807 | 0.686 | 0.638 | 0.673 | 0.754 | 0.759 | 0.782 | 0.682 | 0.638 | 0.478 | 0.555 | 0.543 | 0.534 | 0.52 | 0.799 | 0.792 | 0.734 | 0.58 | 0.514 |
| LU99A | 0.335 | 0.422 | 0.294 | 0.209 | 0.425 | 0.496 | 0.451 | 0.572 | 0.467 | 0.538 | 0.409 | 0.389 | 0.407 | 0.397 | 0.407 | 0.926 | 0.909 | 0.991 | 0.97 | 0.744 |
| LXF-289 | 1.16 | 1.09 | 1.15 | 0.838 | 1.16 | 0.685 | 0.673 | 0.729 | 0.676 | 0.637 | 0.593 | 0.623 | 0.589 | 0.594 | 0.557 | 0.822 | 0.862 | 0.949 | 0.899 | 0.874 |
| NCI-H23 | 0.265 | 0.218 | 0.247 | 0.195 | 0.235 | 0.426 | 0.294 | 0.408 | 0.375 | 0.381 | 0.451 | 0.439 | 0.448 | 0.503 | 0.473 | 0.968 | 0.882 | 1.26 | 1.04 | 0.919 |
| NCI-H322M | 0.628 | 0.524 | 0.678 | 0.439 | 0.525 | 0.511 | 0.478 | 0.503 | 0.456 | 0.551 | 0.465 | 0.458 | 0.494 | 0.509 | 0.462 | 0.642 | 0.531 | 0.657 | 0.551 | 0.618 |
| NCI-H358 | 0.571 | 0.462 | 0.377 | 0.295 | 0.409 | 0.133 | 0.117 | 0.151 | 0.125 | 0.125 | 0.149 | 0.111 | 0.14 | 0.134 | 0.137 | 0.4 | 0.4 | 0.441 | 0.311 | 0.276 |
| NCI-H460 | 0.639 | 0.611 | 0.615 | 0.2 | 0.682 |  | 0.0664 | 0.241 | 0.0967 | 0.0451 |  | 0.142 | 0.206 | 0.0722 | 0.0459 | 0.892 | 0.856 | 0.963 | 0.276 | 0.0581 |
| NCI-H647 | 0.546 | 0.631 | 0.409 | 0.198 | 0.397 | 0.52 | 0.436 | 0.478 | 0.406 | 0.17 | 0.353 | 0.352 | 0.393 | 0.288 | 0.158 |  | 1.08 | 1.16 | 0.889 | 0.264 |
| NCI-H650 | 1.48 | 1.04 | 0.79 | 0.378 | 1.08 | 0.894 | 0.887 |  | 1.03 | 1.02 | 0.344 | 0.298 |  | 0.348 | 0.313 | 0.829 | 0.924 | 0.524 | 0.849 | 0.841 |
| NCI-H727 | 0.625 | 0.574 | 0.578 | 0.379 | 0.704 | 0.346 | 0.395 | 0.464 | 0.357 | 0.404 | 0.721 | 0.692 | 0.638 | 0.633 | 0.613 | 0.802 | 0.825 | 0.634 | 0.844 | 0.773 |
| NCI-H838 | 0.902 | 0.935 | 0.907 | 0.69 | 0.892 | 0.555 | 0.53 | 0.664 | 0.393 | 0.169 | 0.219 | 0.223 | 0.28 | 0.252 | 0.173 | 0.904 | 0.93 | 1.35 | 0.856 | 0.329 |
| NCI-H1355 | 0.817 | 0.786 | 0.625 | 0.523 | 0.703 | 0.404 | 0.441 | 0.392 | 0.416 | 0.418 | 0.372 | 0.391 | 0.391 | 0.413 | 0.402 | 0.783 | 1.05 | 0.991 | 1.04 | 0.975 |
